Assay results from patent US11298353B2, “Anti-inflammatory composition” (OSTEONEUROGEN INC., priority 2019, dated 2022).

Tests used:
CD14 [1] = test: CD14 expression in LPS-treated RAW264.7 cells (Western blot); format: cell-based; conditions: LPS 100 ng/ml + compound 50 μM, 5 to 15 minutes after LPS
Experimental: In addition, in order to examine the effect of the compound of the present invention on the expression of CD14, the expression of CD14 in a group treated with LPS (100 ng/ml) and a group treated with 50 μM of the compound (Formula 2) of the present invention was compared by Western blot analysis.

ONGHEPA1 cell line [2] = test: Reactive oxygen species production in TGF-β-treated hepatic stellate cells (H2DCFDA staining); format: cell-based, mouse; conditions: TGF-β 10 ng/ml + compound 50 μM
Experimental: (§1) Using the ONGHEPA1 cell line, the production of reactive oxygen species (ROS) in a group treated with TGF-β (10 ng/ml) and a group treated with TGF-β (10 ng/ml)+the compound (Formula 2; 50 μM) of the present invention was compared by cell staining H2DCFDA (ThermoFischer, D399) which is a reactive oxygen species staining reagent, and the expression of CCL2 and CCL7 was compared by real-time PCR.

[3] = test system: diseased human lung fibroblasts (DHLFs); test: Transcriptome analysis of TGF-β-treated diseased human lung fibroblasts; format: cell-based; conditions: TGF-β 10 ng/ml + compound 50 μM, genes up-regulated at p<0.005
Experimental: Using diseased human lung fibroblasts (DHLFs) isolated from idiopathic pulmonary fibrosis patients, transcriptomes were analyzed comparatively between a group treated with TGF-β (10 ng/ml) and a group treated with TGF-β (10 ng/ml)+the compound (Formula 2) (50 μM) of the present invention.

CD14 [4] = target: T1, CD14 (Mus musculus, UniProt P10810); test: CD14 FITC immunofluorescence staining in LPS-treated RAW264.7 cells; format: cell-based; conditions: LPS 100 ng/ml + compound 50 μM
T1 construct: endogenous in cells; host or cells: RAW264.7
T1 sequence (P10810 16-336): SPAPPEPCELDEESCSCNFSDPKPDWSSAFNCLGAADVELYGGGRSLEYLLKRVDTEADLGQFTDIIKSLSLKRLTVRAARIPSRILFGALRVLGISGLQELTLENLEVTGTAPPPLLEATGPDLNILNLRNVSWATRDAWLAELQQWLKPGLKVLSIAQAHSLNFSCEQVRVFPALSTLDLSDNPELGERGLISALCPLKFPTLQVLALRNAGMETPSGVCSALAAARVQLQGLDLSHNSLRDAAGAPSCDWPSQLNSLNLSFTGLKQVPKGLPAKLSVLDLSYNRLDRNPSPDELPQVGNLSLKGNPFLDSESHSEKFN
Source text: To verify this determination, the change in expression of an early inflammatory response stage factor (a factor involved in the early stage of LPS-induced inflammatory response) by treatment with the compound (Formula 2) of the present invention was examined by immunofluorescence staining using FITC.
Looking at the control group in FIG. 9 (see FIG. 10 which is an enlarged view), it can be seen that FITC fluorescence is concentrated on the surface (membrane portion) of the cell. […] However, looking at the LPS-treated group (see FIG. 10 which is an enlarged view), it can be seen that the cell changes into a circular shape and FITC fluorescence is distributed throughout the cell without being concentrated on the surface of the cell. This means that when treated with LPS, CD14 did bind to LPS and endocytosis occurred. In the case of the group treated with the compound of the present invention (see FIG. 12 which is an enlarged view), the same pattern as that in the control group appeared despite LPS treatment.

RAW264.7 cell line [5] = test: TNFα expression in macrophages treated with various concentrations of LPS (real-time PCR); format: cell-based; conditions: LPS 100 ng/ml to 10 μg/ml + compound 50 μM
Experimental: (§2) Specifically, the RAW264.7 cell line was cultured in RPMI liquid medium, and then divided into a normal control group (untreated), a group treated with LPS (100 ng/ml), and a group treated with the compound of the present invention (cells treated with 100 ng/ml of LPS and treated with 25 or 50 μM of the compound of the present invention). Each of the test groups treated was incubated for 24 hours, and then total RNA was extracted from the cell of each test group and synthesized into cDNA per 1 μg of total RNA, and real-time PCR for each inflammatory factor was performed. The real-time PCR was performed for […], and then the obtained data were statistically processed using t-test.
In addition, according to the same method as described above, the RAW264.7 cell line was treated with various concentrations (100 ng/ml to 10 μg/ml) of LPS, and the effect of treatment with 50 μM of the compound (Formula 2) of the present invention was examined.

ONGHEPA1 cell line [6] = test: CCL2 and CCL7 expression in TGF-β-treated hepatic stellate cells (real-time PCR); format: cell-based, mouse; conditions: TGF-β 10 ng/ml + compound 50 μM
Experimental: as §1

ONGHEPA1 cell line [7] = test: NOX4 expression in TGF-β-treated hepatic stellate cells (real-time PCR, ICC); format: cell-based, mouse; conditions: TGF-β 10 ng/ml + compound 50 μM, real-time PCR and ICC
Experimental: Using the ONGHEPA1 cell line (KCTC13086BP) which is a mouse hepatic stellate cell line, the expression of NOX4 in a group treated with TGF-β (10 ng/ml) and a group treated with TGF-β (10 ng/ml)+the compound (Formula 2; 50 μM) of the present invention was compared by real-time PCR and immunocytochemistry (ICC).

RAW264.7 cell line [8] = test: Expression of inflammatory factors in LPS-treated macrophages (real-time PCR or ELISA); format: cell-based; conditions: LPS 100 ng/ml + compound 25 or 50 μM, 24 hours
Source text: In order to confirm the effect of the compound of the present invention in a special anti-inflammatory model, the anti-inflammatory effect of the compound of the present invention was examined using the RAW264.7 cell line (macrophage cell line).
Using the RAW264.7 cell line, the expression of inflammatory factors, INFα, IL-1β, CCL2 (MCP-1), CCL7 (MCP-3), CXCL2, CHOP and NOX1, in a group treated with LPS (lipopolysaccharide) and a group treated with LPS+the compound (Formula 2) of the present invention, was compared by real-time PCR or ELISA.
as §2

activity of CD14 involved in the early stage of inflammatory response (CD14 [4]): inhibited
SMILES: COc1ccc(-c2cc(=O)c3c(O)c(OC)c(OCCN4CCNC(=O)C4)cc3o2)cc1OC [Formula 2]
increase in expression of CD14 (CD14 [1]): decreased
production of reactive oxygen species (ONGHEPA1 cell line [2]): inhibited
inhibition of TGF-β up-regulated gene expression: NOX4 [3]: selected genes included NOX4
interaction between CD14 and LPS (CD14 endocytosis pattern) (CD14 [4]): blocked the interaction between CD14 and LPS
expression of TNFα (RAW264.7 cell line [5]): blocked the expression of TNFα regardless of the concentration of LPS
expression of CCL2 (ONGHEPA1 cell line [6]): inhibited
expression of CCL7 (ONGHEPA1 cell line [6]): inhibited
increase in the expression of NOX4 (ONGHEPA1 cell line [7]): inhibited
expression of CCL2 (MCP-1) (RAW264.7 cell line [8]): decreased
expression of CCL7 (MCP-3) (RAW264.7 cell line [8]): decreased
expression of CHOP (RAW264.7 cell line [8]): decreased
expression of CXCL2 (RAW264.7 cell line [8]): decreased
expression of IL-1β (RAW264.7 cell line [8]): decreased
expression of INFα (RAW264.7 cell line [8]): decreased
expression of NOX1 (RAW264.7 cell line [8]): decreased
